The target of one assay is T1, HA1 adenosine receptor (Homo sapiens, UniProt P30542).
T1 sequence (P30542 1-326): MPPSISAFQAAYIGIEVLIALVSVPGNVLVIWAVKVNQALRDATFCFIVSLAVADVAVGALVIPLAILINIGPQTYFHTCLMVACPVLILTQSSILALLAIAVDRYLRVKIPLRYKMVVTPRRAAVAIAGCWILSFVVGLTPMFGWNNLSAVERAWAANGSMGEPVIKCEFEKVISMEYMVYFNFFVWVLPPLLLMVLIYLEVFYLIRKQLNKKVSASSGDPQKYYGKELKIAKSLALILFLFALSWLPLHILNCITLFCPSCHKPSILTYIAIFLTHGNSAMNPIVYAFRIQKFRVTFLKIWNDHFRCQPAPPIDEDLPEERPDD
Kind of assay: Human adenosine A1 receptor affinity (Ki hA1). In kind it is binding. The settings on record: affinity to human adenosine A1 receptor.

For assay [1], the target named is T2, human adenosine A2A receptor (Homo sapiens, UniProt P29274).
T2 construct: expressed in transfected cells; host or cells: CHO cells, Semliki Forest virus expression system; membrane preparation
Kind of assay: Human adenosine A2A receptor [3H]-SCH-58261 binding assay. The settings on record: for Ki: affinity to human adenosine A2A receptor, read-out: Ki HA2A; for selectivity (A1/A2a): calculated ratio of the affinity to the HA1 receptor to the HA2a receptor.

T2 sequence (P29274 whole entry): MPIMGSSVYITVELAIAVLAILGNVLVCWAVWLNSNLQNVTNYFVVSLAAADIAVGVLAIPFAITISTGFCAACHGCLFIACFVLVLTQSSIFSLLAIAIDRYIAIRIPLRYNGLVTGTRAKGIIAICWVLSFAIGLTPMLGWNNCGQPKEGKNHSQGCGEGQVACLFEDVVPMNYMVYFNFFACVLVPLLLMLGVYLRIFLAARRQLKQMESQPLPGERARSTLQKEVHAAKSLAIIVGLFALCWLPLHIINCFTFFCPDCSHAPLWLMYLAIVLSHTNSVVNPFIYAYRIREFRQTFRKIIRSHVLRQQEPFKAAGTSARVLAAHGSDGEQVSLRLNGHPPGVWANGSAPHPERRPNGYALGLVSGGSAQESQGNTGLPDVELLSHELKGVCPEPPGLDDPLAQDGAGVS

As to `CC1CCCC(C)N1C(=O)c1cc(N)n2nc(-c3nccs3)nc2c1` (stereo not drawn) [Example 320], the Ki at HA1 adenosine receptor amounted to 614 nM. For the same compound, in assay [1], the Ki came out at 82.7 nM and the “selectivity (A1/A2a)” value is reported as 7.4.
Taken in the same sequence, the figures for `CN(CCc1ccccc1)C(=O)c1cc(N)n2nc(-c3nccs3)nc2c1` [Example 322, 5-Amino-2-thiazol-2-yl-[1,2,4]triazolo[1,5-a]pyridine-7-carboxylic acid methyl-phenethyl-amide] were 1220 nM, 127 nM and 9.6.
The like results for `CCN(Cc1ccccc1)C(=O)c1cc(N)n2nc(-c3nccs3)nc2c1` [Example 323, 5-Amino-2-thiazol-2-yl-[1,2,4]triazolo[1,5-a]pyridine-7-carboxylic acid benzyl-ethyl-amide] were, in that order, 342 nM, 25.2 nM and 13.6.
The like results for `CCN(Cc1ccncc1)C(=O)c1cc(N)n2nc(-c3nccs3)nc2c1` [Example 325, 5-Amino-2-thiazol-2-yl-[1,2,4]triazolo[1,5-a]pyridine-7-carboxylic acid ethyl-pyridin-4-ylmethyl-amide] were, in that order, 1330 nM, 37.6 nM and 35.2.
For the compound `Nc1cc(C(=O)N(Cc2ccccc2)Cc2ccccc2)cc2nc(-c3nccs3)nn12` [Example 327, 5-Amino-2-thiazol-2-yl-[1,2,4]triazolo[1,5-a]pyridine-7-carboxylic acid dibenzylamide], the Ki worked out at 128 nM at HA1 adenosine receptor and 5.8 nM in assay [1]. Also, in assay [1], the “selectivity (A1/A2a)” value is 22.2.
`CCNC(=O)c1cc(N)n2nc(-c3nccs3)nc2c1` [Example 328, 5-Amino-2-thiazol-2-yl-[1,2,4]triazolo[1,5-a]pyridine-7-carboxylic acid ethylamide]: the values for the Ki (at HA1 adenosine receptor; in assay [1]) were 1240 nM and 31.7 nM, respectively. Moreover, in assay [1], the “selectivity (A1/A2a)” value is on record as 39.1.
Regarding `CC1CCCCN1C(=O)c1cc(N)n2nc(-c3nccs3)nc2c1` (stereo not drawn) [Example 329, (5-Amino-2-thiazol-2-yl-[1,2,4]triazolo[1,5-a]pyridin-7-yl)-(2-methyl-piperidin-1-yl)-methanone], the Ki turned out to be 1980 nM at HA1 adenosine receptor and 47.3 nM in assay [1]. Moreover, the “selectivity (A1/A2a)” value in assay [1] is 41.9.
As to `CC1CCN(C(=O)c2cc(N)n3nc(-c4nccs4)nc3c2)CC1` [Example 330, (5-Amino-2-thiazol-2-yl-[1,2,4]triazolo[1,5-a]pyridin-7-yl)-(4-methyl-piperidin-1-yl)-methanone], the Ki at HA1 adenosine receptor was 2780 nM. Besides, in assay [1], the Ki amounted to 64.4 nM and the “selectivity (A1/A2a)” value was 43.1.
For the compound `CCCN(CCC)C(=O)c1cc(N)n2nc(-c3nccs3)nc2c1` [Example 331, 5-Amino-2-thiazol-2-yl-[1,2,4]triazolo[1,5-a]pyridine-7-carboxylic acid dipropylamide], the affinity on HA1 adenosine receptor corresponds to a Ki of 2700 nM. Besides, in assay [1], the Ki was found to be 87.5 nM and the “selectivity (A1/A2a)” value is on record as 30.9.
Taken in the same sequence, the figures for `Nc1cc(C(=O)N2CCCCCCC2)cc2nc(-c3nccs3)nn12` [Example 332, (5-Amino-2-thiazol-2-yl-[1,2,4]triazolo[1,5-a]pyridin-7-yl)-azocan-1-yl-methanone] were 844 nM, 17.2 nM and 49.1.
The like results for `CC1CC(C)CN(C(=O)c2cc(N)n3nc(-c4nccs4)nc3c2)C1` (stereo not drawn) [Example 333, (5-Amino-2-thiazol-2-yl-[1,2,4]triazolo[1,5-a]pyridin-7-yl)-(3,5-dimethyl-piperidin-1-yl)-methanone] were, in that order, 1730 nM, 36.1 nM and 47.9.
Taken in the same sequence, the figures for `CCCCN(CCC)C(=O)c1cc(N)n2nc(-c3nccs3)nc2c1` [Example 334, 5-Amino-2-thiazol-2-yl-[1,2,4]triazolo[1,5-a]pyridine-7-carboxylic acid butyl-propyl-amide] were 1790 nM, 98 nM and 18.3.
As for `CCNC(=O)c1cc(N)n2nc(-c3ccc(Br)o3)nc2c1` [Example 335, 5-Amino-2-(5-bromo-furan-2-yl)-[1,2,4]triazolo[1,5-a]pyridine-7-carboxylic acid ethylamide], the Ki on HA1 adenosine receptor was 355 nM. In assay [1], the Ki is 25.2 nM and the “selectivity (A1/A2a)” value was 14.1.
Turning to `CC1CCN(C(=O)c2cc(N)n3nc(-c4ccc(Br)o4)nc3c2)CC1` [Example 337, [5-Amino-2-(5-bromo-furan-2-yl)-[1,2,4]triazolo[1,5-a]pyridin-7-yl]-(4-methyl-piperidin-1-yl)-methanone], on HA1 adenosine receptor, affinity was put at a Ki of 183 nM. In assay [1], the Ki is 6.4 nM and the “selectivity (A1/A2a)” value is 28.6.
In the case of `CCCN(CCC)C(=O)c1cc(N)n2nc(-c3ccc(Br)o3)nc2c1` [Example 338, 5-Amino-2-(5-bromo-furan-2-yl)-[1,2,4]triazolo[1,5-a]pyridine-7-carboxylic acid dipropylamide], the Ki at HA1 adenosine receptor came out at 200 nM; in assay [1] it was 3.1 nM. For the same compound, the “selectivity (A1/A2a)” value in assay [1] is recorded as 64.4.
In turn, `Nc1cc(C(=O)N2CCCCCCC2)cc2nc(-c3ccc(Br)o3)nn12` [Example 339, [5-Amino-2-(5-bromo-furan-2-yl)-[1,2,4]triazolo[1,5-a]pyridin-7-yl]-azocan-1-yl-methanone] yielded a Ki at HA1 adenosine receptor of 37 nM. For the same compound, in assay [1], the Ki worked out at 1.3 nM and the “selectivity (A1/A2a)” value was 28.5.
For `CN(C(=O)c1cc(N)n2nc(-c3ccc(Br)o3)nc2c1)C1CCCCC1` [Example 340, 5-Amino-2-(5-bromo-furan-2-yl)-[1,2,4]triazolo[1,5-a]pyridine-7-carboxylic acid cyclohexyl-methyl-amide], on HA1 adenosine receptor, the Ki came to 77.3 nM. Further, in assay [1], the Ki turned out to be 2.6 nM and the “selectivity (A1/A2a)” value is recorded as 29.7.
Turning to `CC1CC(C)CN(C(=O)c2cc(N)n3nc(-c4ccc(Br)o4)nc3c2)C1` (stereo not drawn) [Example 341, [5-Amino-2-(5-bromo-furan-2-yl)-[1,2,4]triazolo[1,5-a]pyridin-7-yl]-(3,5-dimethyl-piperidin-1-yl)-methanone], the Ki on HA1 adenosine receptor was determined as 120 nM. In assay [1], the Ki was 1.7 nM and the “selectivity (A1/A2a)” value is listed as 70.3.
For the compound `CCCCN(CCC)C(=O)c1cc(N)n2nc(-c3ccc(Br)o3)nc2c1` [Example 342, 5-Amino-2-(5-bromo-furan-2-yl)-[1,2,4]triazolo[1,5-a]pyridine-7-carboxylic acid butyl-propyl-amide], the affinity on HA1 adenosine receptor, expressed as Ki, was 142 nM. Besides, in assay [1], the Ki was determined as 3 nM and the “selectivity (A1/A2a)” value is given as 47.3.
Taken in the same sequence, the figures for `CN(Cc1ccccc1)C(=O)c1cc(N)n2nc(-c3ccc(Br)o3)nc2c1` [Example 343, 5-Amino-2-(5-bromo-furan-2-yl)-[1,2,4]triazolo[1,5-a]pyridine-7-carboxylic acid benzyl-methyl-amide] were 42.2 nM, 2.7 nM and 15.6.
As for `C=CCN(C(=O)c1cc(N)n2nc(-c3ccc(Br)o3)nc2c1)C1CCCC1` [Example 344, 5-Amino-2-(5-bromo-furan-2-yl)-[1,2,4]triazolo[1,5-a]pyridine-7-carboxylic acid allyl-cyclopentyl-amide], the values for the Ki (on HA1 adenosine receptor; in assay [1]) were 71.7 nM and 1.6 nM, respectively. In addition, the “selectivity (A1/A2a)” value in assay [1] is recorded as 44.8.
Taken in the same sequence, the figures for `CCN(C(=O)c1cc(N)n2nc(-c3ccc(Br)o3)nc2c1)C1CCCCC1` [Example 345, 5-Amino-2-(5-bromo-furan-2-yl)-[1,2,4]triazolo[1,5-a]pyridine-7-carboxylic acid cyclohexyl-ethyl-amide] were 62.1 nM, 2 nM and 31.1.
As for `CC(C)CN(CC(C)C)C(=O)c1cc(N)n2nc(-c3ccc(Br)o3)nc2c1` [Example 346, 5-Amino-2-(5-bromo-furan-2-yl)-[1,2,4]triazolo[1,5-a]pyridine-7-carboxylic acid diisobutylamide], the affinity on HA1 adenosine receptor corresponds to a Ki of 102 nM. For the same compound, in assay [1], the Ki turned out to be 2.4 nM and the “selectivity (A1/A2a)” value was 42.7.
The like results for `Nc1cc(C(=O)N2CCc3ccccc3C2)cc2nc(-c3ccc(Br)o3)nn12` [Example 347, [5-Amino-2-(5-bromo-furan-2-yl)-[1,2,4]triazolo[1,5-a]pyridin-7-yl]-(3,4-dihydro-1H-isoquinolin-2-yl)-methanone] were, in that order, 236 nM, 13.3 nM and 17.7.
Consider `C=CCN(C(=O)c1cc(N)n2nc(-c3ccc(Br)o3)nc2c1)C1CCCCC1` [Example 348, 5-Amino-2-(5-bromo-furan-2-yl)-[1,2,4]triazolo[1,5-a]pyridine-7-carboxylic acid allyl-cyclohexyl-amide], for which the figures for the Ki (on HA1 adenosine receptor; in assay [1]) were 67 nM and 2.6 nM, respectively. The “selectivity (A1/A2a)” value in assay [1] was 25.8.
The like results for `Nc1cc(C(=O)N2CCCC3CCCCC32)cc2nc(-c3ccc(Br)o3)nn12` (stereo not drawn) [Example 349, [5-Amino-2-(5-bromo-furan-2-yl)-[1,2,4]triazolo[1,5-a]pyridin-7-yl]-(octoahydro-quinolin-1-yl)-methanone] were, in that order, 64.7 nM, 2.9 nM and 22.3.
Taken in the same sequence, the figures for `Nc1cc(C(=O)N2CCC3CCCCC3C2)cc2nc(-c3ccc(Br)o3)nn12` (stereo not drawn) [Example 350] were 167 nM, 5.8 nM and 28.8.

The values above are taken from patent publication US6506772B1, “Substituted [1,2,4]triazolo[1,5a]pyridine derivatives with activity as adenosine receptor ligands” (Hoffmann-La Roche Inc., priority 2000, dated 2003).
